# In patent US20240025849A1 (MAX DELBRÜCK-CENTRUM FÜR MOLEKULARE MEDIZIN IN DER …, priority 2020, published 2024):
# Entries after “also recorded” stand apart in the source; their conditions may differ.
# Columns and labels:
# [1] = system: oligodendrocyte cell line OLN-93; experiment: Propidium iodide based proliferation and cell death assay in OLN-93 cells; conditions: 2.5 μM C1, 48 hours, unstimulated
# Procedure: Cell culture of immortalized cell lines: microglia cell line BV2, and oligodendrocyte cell line OLN-93. The immortalized murine microglia cell line BV2 (Blasi et al., 1990) and the oligodendrocyte cell line OLN-93 (Richter-Landsberg and Heinrich, 1996) were incubated in T75 flasks with plain medium. The cells were split every 2 to 3 days at the dilution 1:10 before they reached confluence. To do so, the cells were washed twice with PBS, followed by up to 5 min of trypsination. The trypsination was stopped using plain medium. The cells were centrifuged at 300 g for 10 min at 4° C., the supernatant was discarded, and the cells were resuspended in new medium and seeded into a new flask.
# Propidium iodide based proliferation and cell death assay. To determine the relative proliferation and cell death, the cells were seeded into a […], let adhere for 24 hours and afterwards treated for additional 48 hours. The supernatant was removed, and the cells were washed carefully with 37° C. […] The intensity of the propidium iodide signal of the dead cells was measured using a microplate reader. Afterwards, all cells were killed with a 10 min incubation of 10% DMSO and the propidium iodide signal of all cells was measured. […] The percentage of dead cells was calculated by dividing the dead-cell-signal by the all-cell-signal. Proliferation was calculated as a relative value to the plain medium control.
# [2] = system: primary cultured neonatal microglia; experiment: AlamarBlue assay (metabolic activity / cell viability) in microglia; assay type: cell-based, mouse
# Procedure: (§1) Primary cultured neonatal microglia. For preparation of cultured neonatal microglia, P0-P3 mice were used. 10 brains were extracted, meninges and cerebellum were removed and put on ice with Hank's balanced salt solution (HBSS). The dissected brains were washed 3 times before adding 400 μL trypsin (0.1 mg/L) and DNAse (5 μg/L) in phosphate buffered saline (PBS). After 2 min of incubation with this solution, the reaction was blocked by adding plain medium. After removal of the medium, 1 mg DNAse was added and the cells were mechanically dissociated, with a Pasteur pipette followed by a glass pipette. The cells were centrifuged for 10 min at 129 g at 4° C. The supernatant was discarded. The pellet was resuspended in plain medium and plated (2.5 brains/flask) in Poly-L-Lysine coated flasks. The cells were washed after 2 days with PBS and incubated for another 7 days in plain medium. Afterwards the medium was replaced by plain medium with 33% L929 conditioned medium. After 2 days, cells were harvested by shaking them for 30 min at 150 rpm. The supernatant was centrifuged for 10 min at 129 g at 4° C. The cells were plated into a 96 well plate (100 000 cells/well, 200 μL medium per well). This procedure could be repeated 2 times with a 2 day interval.
# Concentration-dependent validation and viability determination. Concentrated stock solutions of compounds identified from primary screening were rearranged onto anew 384-well plate, and 10 sequential 2-fold serial dilutions were created across multiple plates in DMSO. Starting from these diluted compound mother plates, the protocol was repeated exactly as for primary screening to span the concentration range between 5 μM and 20 nM. In order to obtain the 10 μM and 20 μM concentration points, 1000 n1 and 2000 n1 were transferred from the 500 μM pre-dilution plate, respectively. Each concentration was measured in duplicate. Normalized percent activities were plotted against the compound concentration to obtain the IC50 values. To obtain also information about the impact of compounds on cell viability, a second batch of plates was prepared as described above, but 5 μl of Alamar Blue solution was added after 48 hours instead of Griess reagent and incubation was continued for additional 4 hours at 37° C. Finally, the resorufin fluorescence was detected at an excitation wavelength of 530 nm and emission of 570 nm. Since no control samples were present on the assay plate for data normalization of cell viability, the raw data values were added on the second y-scale to the IC50 plots.
# AlamarBlue assay. […] The conversion of resazurin to resorufin was measured by absorbance (absorbance wavelength of 570 nm and a reference wavelength of 600 nm) after 3 hours.
# [3] = system: primary cultured neonatal microglia; experiment: Cytokine release (IL1β, IL6, TNFα) ELISA in microglia; assay type: cell-based, mouse
# Procedure: as §1
# Enzyme-linked immunosorbent assay (ELISA). Cells were seeded according to the protocols described above, after compounds and stimuli were added, the supernatant was collected, centrifuged (500 g, 5 minutes) and stored at −20° C. until analysed. The following kits from Bio-Techne (Minneapolis, USA) were used to detect IL1β, IL6 and TNFα: ELISA Mouse IL-1β/IL-1F2 Duo Set, ELISA Mouse IL-6, ELISA Mouse TNFα. ELISA assays were performed according to the manufacturers protocol.
# [4] = system: primary cultured microglial cells; experiment: Flow cytometry-based phagocytosis assay; assay type: cell-based, mouse; conditions: 2.5 μM C1
# Procedure: Flow cytometry-based phagocytosis assay. 10^6 primary cultured microglial cells were seeded into 3.5 cm dishes in plain medium overnight at standard conditions. The cells were treated for 1 hour with 2.5 μM C1 in DMSO, 125×10^−5 v/v DMSO respectively, or plain medium only. To stimulate microglia, LPS (1 μg/ml) was added for additional 24 hours. Fluoresbrite Carboxylate Microspheres (BrightBlue, 4.5 μm, Polyscience, Niles, USA) were coated with fetal calf serum for 30 min at room temperature, and subsequently centrifuged at 3000 g for 2 min at room temperature. The beads were resuspended in HBSS at a final concentration of 2×10^6 beads per ml. The microglia culture was washed once with HBSS (37° C.) before 1 ml bead solution was applied. The cells were incubated with the beads for 30 min at 37° C. Afterwards, microglia were washed twice with ice cold HBSS, scratched off and pulled down at 500 g for 5 min. The cells were resuspended in a propidium iodide solution (1:200 in HBSS) to stain dead cells. The stained cells were transferred to a BD LSRFortessa Flow cytometer (BD Bioscience, Sparks, USA). The median intensity of the bright blue beads was calculated using Flowlo v10 software (Ashland, USA). The data of each experiment was normalised to the unstimulated media control.
# [5] = 1 h C1, then 1 μg/ml LPS 48 hours
# [6] = unstimulated microglia, 48 hours
compound,measurement,setting,value
COc1ccc(NC(=O)C(NC(=O)C2CCCN2C(=O)OCc2ccccc2)c2ccc(OC)cc2)cc1 (stereo not drawn) [C1],OLN-93 cell death rate,[1],no significant effect
same,proliferation of OLN-93 cells,[1],did not show an effect; also recorded: Neither C1 nor DMSO changed the proliferation
same,cell viability,"[2]; 2 nM to 20 μM, 1 μg/ml LPS 48 h",no effects on cell viability
same,metabolic activity,"[2]; 20 μM C1, 1 μg/mL LPS 48 h",84%±3.99
same,metabolic activity in unstimulated microglia,"[2]; C1 alone 0.025, 0.25, 2.5 μM, 48 hours",did not show any significant difference; also recorded: nor did it interfere with the metabolic activity
same,metabolic activity (AlamarBlue),"[2]; HTS setup, LPS stimulated",remained stable
same,LPS induced IL1β release,"[3]; 0.025, 0.25, 2.5 μM C1, 1 μg/ml LPS 48 hours",exceeded the LPS-induced release; also recorded: exceeds the stimulated control significantly
same,LPS induced IL6 release,[3]; [5],no effect; also recorded: did not show a reduction
same,LPS induced TNFα release,[3]; [5],no effect; also recorded: did not show a reduction
same,"IL1β release, C1 alone",[3]; [6],did not show any significant changes; also recorded: does not alter
same,"IL6 release, C1 alone",[3]; [6],did not show any significant changes; also recorded: does not alter
same,"TNFα release, C1 alone",[3]; [6],did not show any significant changes; also recorded: does not alter
same,"phagocytic activity, basal conditions",[4],neither C1 nor DMSO changes microglial phagocytosis significantly; also recorded: did not alter
same,increase of phagocytosis upon LPS compared to own unstimulated control,[4]; 1 μg/mL LPS 24 hours,+45%
same,"phagocytic activity, LPS stimulated conditions",[4]; 1 μg/mL LPS 24 hours,no significant differences; also recorded: did not alter
